Test [1] addresses T1, thrombin (Homo sapiens, UniProt P00734). Put plainly: anti-thrombin activity; clotting assay (coagulation time with fibrinogen as substrate). The note with it: for Potency: calculated using the definition that HV-1 (54-65) potency is 1; for IC50: concentration corresponding to 50 thrombin units, human-thrombin 10 NIH units/ml, human-fibrinogen 6 mg/ml, read-out: 50% Inhibition Concentration (converted). The test is classed as biochemical. Details: 100 μl of human-thrombin prepared at 10 NIH units/ml in aforesaid buffer. On the procedure:
Measurement of anti-thrombin activity was done by looking at anti-coagulant activity as an index using fibrinogen as the substrate. That is, the compounds were dossolved in 200 μl of 0.1 mM Tris-HCl buffer (pH7.5) containing 0.1% polyethyleneglycol-6000, 100 μl of human-thrombin prepared at 10 NIH units/ml in aforesaid buffer, were added 200 μl of human-fibrinogen (Sigma) prepared at 6 mg/ml in aforesaid tris-hydrochloride buffer were added, and the coagulation time of the reaction mixtures were measured. For measuring of coagulation times, coagulation time analyzer (Amelung KC10A) was used. Obtained values were converted into units by using a previously prepared thrombin standard curve. Graphs were prepared by plotting the converted values on the vertical axis, and the concentrations of the compounds on the horizontal axis. In the graphs, the thrombin unit was defined as 100 at a compound concentration of 0. The concentration of compounds corresponding to 50 units were defined as 50% inhibitory concentrations of compounds.

Test [2] deals with T1, thrombin. Put plainly: anti-thrombin activity; chromogenic assay (Chromozym TH hydrolysis, apparent dissociation constant Ki'). Details: 100 μl of human-thrombin prepared at 10 NIH units/ml in aforesaid buffer. The test is classed as biochemical. The note with it: for Ki: apparent dissociation constant, 350 pM human-thrombin, 100 μM Chromozym TH, 37° C.; for Potency: relative to hirudin HV-1 = 1. The protocol: Anti-thrombin activities were measured by measuring the degree of inhibition of thrombin's hydrolytic activity on synthetic substrate Chromozym TH (Tocylglycil-prolylarginine-4-nitroanilideacetate). This reaction was carried out as follows. […] Here, the molar concentration of aforementioned human-thrombin was determined by the method of active site titration [G. W. Jameson et al., Biochem. J., 131, p107-117 (1973)] using 4-methylunberifenyl-p-guanidinobenzoate as substrate. After the pre-incubation, Chromozym TH (product of Boehringer-Mannheim) was added to a final concentration of 100 μM, and released p-nitroanilide was measured at the wave length of 405 nm, and the initial velocity of the hydrolytic reactions were measured for each of the abovementioned hirudins at various concentrations. From this initial velocity of the hydrolytic reactions, the apparent dissociation constants Ki' were calculated by the method of S. R. Stone et al. [Biochemistry, 25, p4622-4628 (1986)].

*1 amine or outer side, *2 acyl side, *3 side chain or, on linkers, in order; H or OH if unused. Where a SMILES comes first, the peptide text is derived from it. Where no end group is shown, it is not given here. [ ]: non-standard residue; d: D form. sY = N[C@@H](Cc1ccc(OS(=O)(=O)O)cc1)C(=O)O; Asu = N[C@@H](CCCCCC(=O)O)C(=O)O; Suc = O=C(CCC(=O)[*:2])[*:1]; Ava = NCCCCC(=O)O; βAla = NCCC(=O)O

As for `CC[C@H](C)[C@H](NC(=O)[C@@H]1CCCN1C(=O)[C@H](CCC(=O)O)NC(=O)[C@H](Cc1ccccc1)NC(=O)[C@H](CC(=O)O)NC(=O)CNC(=O)CCC(=O)O)C(=O)N1CCC[C@H]1C(=O)N[C@@H](Cc1ccc(OS(=O)(=O)O)cc1)C(=O)N[C@@H](Cc1ccc(OS(=O)(=O)O)cc1)C(=O)N[C@@H](Cc1ccc(OS(=O)(=O)O)cc1)C(=O)N[C@@H](CC(C)C)C(=O)N[C@@H](CCC(N)=O)C(=O)O` [Sulfated form of (E), Suc--Gly--Asp--Phe--Glu--Pro--Ile--Pro--Tyr(SO3 H)--Tyr(SO3 H)--Tyr(SO3 H)--Leu--Gln--OH] (Suc-GDFEPIP[sY][sY][sY]LQ-OH), at thrombin [1], the Potency is on record as 44.41 and the IC50 was 80.7 nM. `CC[C@H](C)[C@H](NC(=O)[C@@H]1CCCN1C(=O)[C@H](CCC(=O)O)NC(=O)[C@H](Cc1ccccc1)NC(=O)[C@H](CC(=O)O)NC(=O)CCC(=O)O)C(=O)N1CCC[C@H]1C(=O)N[C@@H](CCC(=O)O)C(=O)N[C@@H](Cc1ccc(OS(=O)(=O)O)cc1)C(=O)N[C@@H](Cc1ccc(OS(=O)(=O)O)cc1)C(=O)N[C@@H](CC(C)C)C(=O)N[C@@H](CCC(N)=O)C(=O)O` [Sulfated form of (F), Suc--Asp--Phe--Glu--Pro--Ile--Pro--Glu--Tyr(SO3 H)--Tyr(SO3 H)--Leu--Gln--OH] (Suc-DFEPIPE[sY][sY]LQ-OH): at thrombin [1], the Potency was 1.32 and the IC50 is 3000 nM. With `CC[C@H](C)[C@H](NC(=O)[C@@H]1CCCN1C(=O)[C@H](CCC(=O)O)NC(=O)[C@H](Cc1ccccc1)NC(=O)CCC(=O)O)C(=O)N1CCC[C@H]1C(=O)N[C@@H](CCC(=O)O)C(=O)N[C@@H](Cc1ccc(OS(=O)(=O)O)cc1)C(=O)N[C@@H](Cc1ccc(OS(=O)(=O)O)cc1)C(=O)N[C@@H](CC(C)C)C(=O)N[C@@H](CCC(N)=O)C(=O)O` [Sulfated form of (G), Suc--Phe--Glu--Pro--Ile--Pro--Glu--Tyr(SO3 H)--Tyr(SO3 H)--Leu--Gln--OH] (Suc-FEPIPE[sY][sY]LQ-OH), at thrombin [1], the Potency was 108.87 and the IC50 was 38.9 nM. With `CC[C@H](C)[C@H](NC(=O)[C@@H]1CCCN1C(=O)[C@H](CCC(=O)O)NC(=O)CCC(=O)O)C(=O)N1CCC[C@H]1C(=O)N[C@@H](CCC(=O)O)C(=O)N[C@@H](Cc1ccc(OS(=O)(=O)O)cc1)C(=O)N[C@@H](Cc1ccc(OS(=O)(=O)O)cc1)C(=O)N[C@@H](CC(C)C)C(=O)N[C@@H](CCC(N)=O)C(=O)O` [Sulfated form of (H), Suc--Glu--Pro--Ile--Pro--Glu--Tyr(SO3 H)--Tyr(SO3 H)--Leu--Gln--OH] (Suc-EPIPE[sY][sY]LQ-OH), on thrombin [1], the Potency is < 0.05 and the IC50 was > 142000 nM. As for `CC[C@H](C)[C@H](NC(=O)[C@@H]1CCCN1C(=O)[C@H](CCC(=O)O)NC(=O)[C@H](Cc1ccccc1)NC(=O)CCC(=O)O)C(=O)N1CCC[C@H]1C(=O)N[C@@H](CCC(=O)O)C(=O)N[C@@H](Cc1ccc(OS(=O)(=O)O)cc1)C(=O)N[C@@H](Cc1ccc(OS(=O)(=O)O)cc1)C(=O)O` [Sulfated form of (I), Suc--Phe--Glu--Pro--Ile--Pro--Glu--Tyr(SO3 H)--Tyr(SO3 H)--OH] (Suc-FEPIPE[sY][sY]-OH), at thrombin [1], the Potency is 1.62 and the IC50 was 3100 nM. For the compound `CC[C@H](C)[C@H](NC(=O)[C@@H]1CCCN1C(=O)[C@H](CCC(=O)O)NC(=O)[C@H](Cc1ccccc1)NC(=O)CCC(=O)O)C(=O)N1CCC[C@H]1C(=O)N[C@@H](CCC(=O)O)C(=O)N[C@@H](Cc1ccc(OS(=O)(=O)O)cc1)C(=O)N[C@@H](Cc1ccc(OS(=O)(=O)O)cc1)C(=O)NCCC(=O)O` [Sulfated form of (K), Suc--Phe--Glu--Pro--Ile--Pro--Glu--Tyr(SO3 H)--Tyr(SO3 H)--NH(CH2)2 COOH] (Suc-FEPIPE[sY][sY][βAla]-OH), on thrombin [1], the Potency was 1.02 and the IC50 was 4650 nM. `CC[C@H](C)[C@H](NC(=O)[C@@H]1CCCN1C(=O)[C@H](CCC(=O)O)NC(=O)[C@H](Cc1ccccc1)NC(=O)CCC(=O)O)C(=O)N1CCC[C@H]1C(=O)N[C@@H](CCC(=O)O)C(=O)N[C@@H](Cc1ccc(OS(=O)(=O)O)cc1)C(=O)N[C@@H](Cc1ccc(OS(=O)(=O)O)cc1)C(=O)NCCCCC(=O)O` [Sulfated form of (L), Suc--Phe--Glu--Pro--Ile--Pro--Glu--Tyr(SO3 H)--Tyr(SO3 H)--NH(CH2)4 COOH] (Suc-FEPIPE[sY][sY][Ava]-OH): the IC50 on thrombin [1] was 2220 nM. `CC[C@H](C)[C@H](NC(=O)[C@@H]1CCCN1C(=O)[C@H](CCC(=O)O)NC(=O)[C@H](Cc1ccccc1)NC(=O)CCC(=O)O)C(=O)N1CCC[C@H]1C(=O)N[C@@H](CCC(=O)O)C(=O)N[C@@H](Cc1ccc(OS(=O)(=O)O)cc1)C(=O)N[C@@H](Cc1ccc(OS(=O)(=O)O)cc1)C(=O)N[C@@H](CC(C)C)C(=O)O` [Sulfated form of (Q), Suc--Phe--Glu--Pro--Ile--Pro--Glu--Tyr (SO3 H)--Tyr(SO3 H)--Leu--OH] (Suc-FEPIPE[sY][sY]L-OH): on thrombin [1], the Potency is 1.85 and the IC50 is 2490 nM. As to `CC[C@H](C)[C@H](NC(=O)[C@@H]1CCCN1C(=O)[C@H](CCC(=O)O)NC(=O)[C@H](Cc1ccccc1)NC(=O)CCC(=O)O)C(=O)N1CCC[C@H]1C(=O)N[C@@H](CCC(=O)O)C(=O)N[C@@H](Cc1ccc(OS(=O)(=O)O)cc1)C(=O)N[C@@H](Cc1ccc(OS(=O)(=O)O)cc1)C(=O)N[C@@H](CC(C)C)C(=O)N[C@H](CCC(=O)O)C(=O)O` [Sulfated form of (T), Suc--Phe--Glu--Pro--Ile--Pro--Glu--Tyr(SO3 H)--Tyr(SO3 H)--Leu--(D)Glu--OH] (Suc-FEPIPE[sY][sY]L[dE]-OH), at thrombin [1], the Potency is recorded as 8.32 and the IC50 was 509 nM. Turning to `CC[C@H](C)[C@H](NC(=O)[C@@H]1CCCN1C(=O)[C@H](CCC(=O)O)NC(=O)[C@H](Cc1ccccc1)NC(=O)CCC(=O)O)C(=O)N1CCC[C@H]1C(=O)N[C@@H](CCC(=O)O)C(=O)N[C@@H](Cc1ccc(OS(=O)(=O)O)cc1)C(=O)N[C@@H](Cc1ccc(OS(=O)(=O)O)cc1)C(=O)N[C@@H](CC(C)C)C(=O)N[C@@H](CCCCCC(N)=O)C(N)=O` [Sulfated form of (X), Suc--Phe--Glu--Pro--Ile--Pro--Glu--Tyr(SO2 H)--Tyr(SO3 H)--Leu--(L)Asu(NH2)NH2] (Suc-FEPIPE[sY][sY]L[Asu](NH2)-NH2), the IC50 on thrombin [1] is 2000 nM. On to GDFEEIPEYYLQ [(A)], for which, on thrombin [1], the IC50 is 9780 nM.

On to GDFEEIPYYYLQ [(B)], for which the IC50 on thrombin [1] is 9000 nM. Regarding “Val--Val--Tyr--Thr--Asp--Cys--Thr--Glu--Ser--Gly--Gln--Asn--Leu--Cys--Leu--Cys--Glu--Gly--Ser--Asn--Val--Cys--Gly--Gln--Gly--Asn--Lys--Cys--Ile--Leu--Gly--Ser--Asp--Gly--Glu--Lys--Asn--Gln--Cys--Val--Thr--Gly--Glu--Gly--Thr--Pro--Lys--Pro--Gln--Ser--His--Asn--Asp--Gly--Asp--Phe--Glu--Glu--Ile--Pro--Tyr--Tyr(SO3 H)--Tyr(SO3 H)--Leu--Gln [Sulfated form of hirudin HV-17 peak 1]”, on thrombin [2], the Ki was 0.0028 nM and the Potency is listed as 2.3.

“Val--Val--Tyr--Thr--Asp--Cys--Thr--Glu--Ser--Gly--Gln--Asn--Leu--Cys--Leu--Cys--Glu--Gly--Ser--Asn--Val--Cys--Gly--Gln--Gly--Asn--Lys--Cys--Ile--Leu--Gly--Ser--Asp--Gly--Glu--Lys--Asn--Gln--Cys--Val--Thr--Gly--Glu--Gly--Thr--Pro--Lys--Pro--Gln--Ser--His--Asn--Asp--Gly--Asp--Phe--Glu--Glu--Ile--Pro--Tyr--Tyr(SO3 H)--Tyr--Leu--Gln [Sulfated form of hirudin HV-17 peak 3]”: on thrombin [2], the Ki came out at 0.0059 nM and the Potency amounted to 1.1. The corresponding values for “Val--Val--Tyr--Thr--Asp--Cys--Thr--Glu--Ser--Gly--Gln--Asn--Leu--Cys--Leu--Cys--Glu--Gly--Ser--Asn--Val--Cys--Gly--Gln--Gly--Asn--Lys--Cys--Ile--Leu--Gly--Ser--Asp--Gly--Glu--Lys--Asn--Gln--Cys--Val--Thr--Gly--Glu--Gly--Thr--Pro--Lys--Pro--Gln--Ser--His--Asn--Asp--Gly--Asp--Phe--Glu--Glu--Ile--Pro--Tyr--Tyr--Tyr(SO3 H)--Leu--Gln [Sulfated form of hirudin HV-17 peak 2]” are 0.0043 nM and 1.5.

These data come from patent US5880258A (dated 1999).
